# Test results published in patent publication US20230147364A1, “PROPHYLACTIC OR THERAPEUTIC AGENT FOR RNA VIRUS-RELATED DISEASES” (priority 2020, published 2023).
# Where a name gives a salt, the structure may show the parent alone.
# Experiments:
# Sendai virus (SeV) [1] = assay: microbe, parasite or virus in culture; format: cell-based; conditions: for IC50: Respirovirus muris, read-out: IC50, infection rate of SeV
# VSV-G = format: cell-based, vesicular stomatitis virus
# Ebola trVLP [2] = system: Ebola trVLP
# SARS-CoV-2 = assay: microbe, parasite or virus in culture; format: cell-based; conditions: for IC50: Severe acute respiratory syndrome coronavirus 2, Vero C1008, read-out: IC50, infection rate of SARS-CoV-2
# Sendai virus (SeV) [3] = format: cell-based
# [4] = system: VSVΔG-SARS2-S (pseudo-type VSV with SARS-CoV-2 spike protein); assay: microbe, parasite or virus in culture; format: cell-based; conditions: Vesicular stomatitis virus, Vero C1008, 20 h, read-out: IC50, VSVΔG-SARS2-S infection
# [5] = system: pseudo-typed VSV having a SARS-CoV spike protein (SARS-CoV-S); assay: microbe, parasite or virus in culture; format: cell-based; conditions: Vesicular stomatitis virus, Vero C1008, 20 h, read-out: IC50, infection with pseudo-typed VSV having SARS-CoV spike protein
# Ebola trVLP [6] = assay: microbe, parasite or virus in culture; conditions: Zaire ebolavirus, Huh-7, read-out: IC50, Ebola trVLP infection
# Wherever Score (number of EGFP-positive cells, value subjected to correction between batches) is given: test concentration or dose not given here.
compound,measurement,setting,value
CC(C)(C)[C@]1(O)CCN2Cc3cccc4c3[C@H](c3ccccc3CC4)[C@@H]2C1.Cl [(+)-Butaclamol hydrochloride],"Score (number of EGFP-positive cells, value subjected to correction between batches)",Sendai virus (SeV) [1],226.08
CN(C)CCC=C1c2ccccc2CCc2ccccc21 [Amitriptyline hydrochloride],"Score (number of EGFP-positive cells, value subjected to correction between batches)",Sendai virus (SeV) [1],192.61
O=C1CCc2ccc(OCCCCN3CCN(c4cccc(Cl)c4Cl)CC3)cc2N1 [Aripiprazole],"Score (number of EGFP-positive cells, value subjected to correction between batches)",Sendai virus (SeV) [1],86.95
Cc1ccc(-c2cc(C(F)(F)F)nn2-c2ccc(S(N)(=O)=O)cc2)cc1 [Celecoxib],"Score (number of EGFP-positive cells, value subjected to correction between batches)",Sendai virus (SeV) [1],208.69
O=C(O)COCCN1CCN(C(c2ccccc2)c2ccc(Cl)cc2)CC1 (stereo not drawn) [Cetirizine dihydrochloride],"Score (number of EGFP-positive cells, value subjected to correction between batches)",Sendai virus (SeV) [1],202.89
CN(C)CCCN1c2ccccc2Sc2ccc(Cl)cc21 [Chlorpromazine hydrochloride],"Score (number of EGFP-positive cells, value subjected to correction between batches)",Sendai virus (SeV) [1],75.36
"CCN(CC)CCOc1ccc(/C(=C(/Cl)c2ccccc2)c2ccccc2)cc1 [Clomifene, clomifene]",infection-inhibiting effect on VSV-G,VSV-G,no infection-inhibiting effect was observed
same,antiviral activity against Ebola trVLP infection,Ebola trVLP [2],inhibit the Ebola trVLP infection
same,effect on virus: Ebola virus,Ebola trVLP [2],+
same,effect on virus: SARS-CoV-2,SARS-CoV-2,+
CC1=NS(=O)(=O)c2cc(Cl)ccc2N1 [Diazoxide],"Score (number of EGFP-positive cells, value subjected to correction between batches)",Sendai virus (SeV) [1],173.91
CC(CCc1ccc(O)cc1)NCCc1ccc(O)c(O)c1 (stereo not drawn) [Dobutamine hydrochloride],"Score (number of EGFP-positive cells, value subjected to correction between batches)",Sendai virus (SeV) [1],69.56
O=c1[nH]c2ccccc2n1CCCN1CCC(n2c(=O)[nH]c3cc(Cl)ccc32)CC1 [Domperidone],"Score (number of EGFP-positive cells, value subjected to correction between batches)",Sendai virus (SeV) [1],139.13
CCOC(=O)C1=C(C)NC(C)=C(C(=O)OC)C1c1cccc(Cl)c1Cl (stereo not drawn) [Felodipine],"Score (number of EGFP-positive cells, value subjected to correction between batches)",Sendai virus (SeV) [1],133.33
COc1ccc(Cl)cc1C(=O)NCCc1ccc(S(=O)(=O)NC(=O)NC2CCCCC2)cc1 [Glibenclamide],"Score (number of EGFP-positive cells, value subjected to correction between batches)",Sendai virus (SeV) [1],202.89
CNCCCC12CCC(c3ccccc31)c1ccccc12 [Maprotiline hydrochloride],"Score (number of EGFP-positive cells, value subjected to correction between batches)",Sendai virus (SeV) [1],191.30
Nc1cc(N2CCCCC2)nc(N)[n+]1[O-] [Minoxidil],"Score (number of EGFP-positive cells, value subjected to correction between batches)",Sendai virus (SeV) [1],226.08
COc1ccccc1N1CCN(CC(O)COc2cccc3ccccc23)CC1 (stereo not drawn) [Naftopidil],"Score (number of EGFP-positive cells, value subjected to correction between batches)",Sendai virus (SeV) [1],214.49
O=C(NCCO[N+](=O)[O-])c1cccnc1 [Nicorandil],"Score (number of EGFP-positive cells, value subjected to correction between batches)",Sendai virus (SeV) [1],185.50
CC(COc1ccccc1)N(CCCl)Cc1ccccc1 (stereo not drawn) [Phenoxybenzamine hydrochloride],"Score (number of EGFP-positive cells, value subjected to correction between batches)",Sendai virus (SeV) [1],162.31
"CCc1ccc(CCOc2ccc(CC3SC(=O)NC3=O)cc2)nc1 (stereo not drawn) [Pioglitazone, pioglitazone]",antiviral activity against Ebola trVLP infection,Ebola trVLP [2],did not show significant antiviral activity
same,effect on virus: Ebola virus,Ebola trVLP [2],−
same,"Score (number of EGFP-positive cells, value subjected to correction between batches)",Sendai virus (SeV) [1],173.91
same,effect on virus: Sendai virus,Sendai virus (SeV) [1],+
same,IC50,Sendai virus (SeV) [1],4.9 µM
same,amount of the EGFP mRNA,Sendai virus (SeV) [3],significantly and markedly reduced
same,antiviral activity against SARS-CoV-2 infection,SARS-CoV-2,partially suppressed virus infection at a high concentration
same,effect on virus: SARS-CoV-2,SARS-CoV-2,+
"O=C(Nc1cccc2c(=O)cc(-c3nnn[nH]3)oc12)c1ccc(OCCCCc2ccccc2)cc1 [Pranlukast, pranlukast]",antiviral activity against Ebola trVLP infection,Ebola trVLP [2],did not show significant antiviral activity
same,effect on virus: Ebola virus,Ebola trVLP [2],−
same,"Score (number of EGFP-positive cells, value subjected to correction between batches)",Sendai virus (SeV) [1],162.31
same,effect on virus: Sendai virus,Sendai virus (SeV) [1],+
same,IC50,Sendai virus (SeV) [1],5 µM
same,amount of the EGFP mRNA,Sendai virus (SeV) [3],significantly and markedly reduced
same,antiviral activity against SARS-CoV-2 infection,SARS-CoV-2,"tended to reduce the infection rate of SARS-CoV-2, which was not significant"
same,effect on virus: SARS-CoV-2,SARS-CoV-2,N.S.
CC(CN1c2ccccc2Sc2ccccc21)N(C)C (stereo not drawn) [Promethazine hydrochloride],"Score (number of EGFP-positive cells, value subjected to correction between batches)",Sendai virus (SeV) [1],231.88
CCCCC[C@H](O)/C=C/[C@H]1[C@H](O)CC(=O)[C@@H]1C/C=C\CCCC(=O)O [Prostaglandin E2],"Score (number of EGFP-positive cells, value subjected to correction between batches)",Sendai virus (SeV) [1],208.69
COc1ccc(CN(CCN(C)C)c2ccccn2)cc1 [Pyrilamine maleate],"Score (number of EGFP-positive cells, value subjected to correction between batches)",Sendai virus (SeV) [1],185.50
OCCOCCN1CCN(C2=Nc3ccccc3Sc3ccccc32)CC1 [Quetiapine fumarate],"Score (number of EGFP-positive cells, value subjected to correction between batches)",Sendai virus (SeV) [1],133.33
O=C(c1ccc(OCCN2CCCCC2)cc1)c1c(-c2ccc(O)cc2)sc2cc(O)ccc12 [Raloxifene hydrochloride],"Score (number of EGFP-positive cells, value subjected to correction between batches)",Sendai virus (SeV) [1],57.97
"O=C(c1ccc(OCCN2CCCCC2)cc1)c1c(-c2ccc(O)cc2)sc2cc(O)ccc12 [Raloxifene, raloxifene]",IC50,[4],3.9 µM
same,IC50,[5],4.1 µM
same,infection-inhibiting effect on VSV-G,VSV-G,no infection-inhibiting effect was observed
same,effect on virus: Ebola virus,Ebola trVLP [2],+
same,infection-inhibiting activity versus cytotoxicity (cell viability),Ebola trVLP [2],significant dissociation between the infection-inhibiting activity and the cytotoxicity
same,IC50,Ebola trVLP [6],0.88 µM
same,effect on virus: Sendai virus,Sendai virus (SeV) [1],+
same,IC50,Sendai virus (SeV) [1],4.3 µM
same,amount of the EGFP mRNA,Sendai virus (SeV) [3],significantly and markedly reduced
same,effect on virus: SARS-CoV-2,SARS-CoV-2,+
same,IC50,SARS-CoV-2,7.1 µM
"CO[C@H]1/C=C/O[C@@]2(C)Oc3c(C)c(O)c4c(O)c(c(/C=N/N5CCN(C)CC5)c(O)c4c3C2=O)NC(=O)/C(C)=C\C=C\[C@H](C)[C@H](O)[C@@H](C)[C@@H](O)[C@@H](C)[C@H](OC(C)=O)[C@@H]1C [Rifampin, rifampin]",antiviral activity against Ebola trVLP infection,Ebola trVLP [2],did not show significant antiviral activity
same,effect on virus: Ebola virus,Ebola trVLP [2],−
same,"Score (number of EGFP-positive cells, value subjected to correction between batches)",Sendai virus (SeV) [1],75.36
same,effect on virus: Sendai virus,Sendai virus (SeV) [1],+
same,IC50,Sendai virus (SeV) [1],3.9 µM
same,amount of the EGFP mRNA,Sendai virus (SeV) [3],significantly and markedly reduced
same,antiviral activity against SARS-CoV-2 infection,SARS-CoV-2,"tended to reduce the infection rate of SARS-CoV-2, which was not significant"
same,effect on virus: SARS-CoV-2,SARS-CoV-2,N.S.
CS(=O)(=O)c1ccc(C2=C(c3ccccc3)C(=O)OC2)cc1 [Rofecoxib],"Score (number of EGFP-positive cells, value subjected to correction between batches)",Sendai virus (SeV) [1],202.89
CC1=C(CC(=O)O)c2cc(F)ccc2/C1=C\c1ccc([S+](C)[O-])cc1 (stereo not drawn) [Sulindac],"Score (number of EGFP-positive cells, value subjected to correction between batches)",Sendai virus (SeV) [1],127.53
"CC/C(=C(\c1ccccc1)c1ccc(OCCN(C)C)cc1)c1ccccc1 [Tamoxifen, tamoxifen]",antiviral activity against Ebola trVLP infection,Ebola trVLP [2],inhibit the Ebola trVLP infection
same,effect on virus: Ebola virus,Ebola trVLP [2],+
same,effect on virus: SARS-CoV-2,SARS-CoV-2,+
CSc1ccc2c(c1)N(CCC1CCCCN1C)c1ccccc1S2 (stereo not drawn) [Thioridazine hydrochloride],"Score (number of EGFP-positive cells, value subjected to correction between batches)",Sendai virus (SeV) [1],217.78
"CN(C)CCOc1ccc(/C(=C(/CCCl)c2ccccc2)c2ccccc2)cc1 [Toremifene, toremifene]",IC50,[4],5.3 µM
same,IC50,[5],7.3 µM
same,infection-inhibiting effect on VSV-G,VSV-G,no infection-inhibiting effect was observed
same,antiviral activity against Ebola trVLP infection,Ebola trVLP [2],inhibit the Ebola trVLP infection
same,effect on virus: Ebola virus,Ebola trVLP [2],+
same,effect on virus: SARS-CoV-2,SARS-CoV-2,+
same,IC50,SARS-CoV-2,10 µM
COc1cc(C(=O)NS(=O)(=O)c2ccccc2C)ccc1Cc1cn(C)c2ccc(NC(=O)OC3CCCC3)cc12 [Zafirlukast],"Score (number of EGFP-positive cells, value subjected to correction between batches)",Sendai virus (SeV) [1],156.52
"CC(c1cc2ccccc2s1)N(O)C(N)=O (stereo not drawn) [Zileuton, zileuton]",antiviral activity against Ebola trVLP infection,Ebola trVLP [2],did not show significant antiviral activity
same,effect on virus: Ebola virus,Ebola trVLP [2],−
same,"Score (number of EGFP-positive cells, value subjected to correction between batches)",Sendai virus (SeV) [1],214.49
same,effect on virus: Sendai virus,Sendai virus (SeV) [1],+
same,IC50,Sendai virus (SeV) [1],4.5 µM
same,amount of the EGFP mRNA,Sendai virus (SeV) [3],significantly and markedly reduced
same,antiviral activity against SARS-CoV-2 infection,SARS-CoV-2,did not exhibit significant antiviral activity
same,effect on virus: SARS-CoV-2,SARS-CoV-2,−
CCC(CC)COC(=O)[C@H](C)N[P@](=O)(OC[C@H]1O[C@@](C#N)(c2ccc3c(N)ncnn23)[C@H](O)[C@@H]1O)Oc1ccccc1 [remdesivir],IC50,Ebola trVLP [6],0.12 µM
same,IC50,Sendai virus (SeV) [1],0.077 µM
same,amount of the EGFP mRNA,Sendai virus (SeV) [3],substantially not detected
same,IC50,SARS-CoV-2,0.89 µM
Ifenprodil tartrate,"Score (number of EGFP-positive cells, value subjected to correction between batches)",Sendai virus (SeV) [1],214.49
